From patent US20160304556A1, “[…] ACTIVE COMPOUNDS AND THEIR METHODS OF USE” (AGIOS PHARMACEUTICALS, INC, priority 2012, published 2016)
pIC50: −log10 of the molar value.

What was measured:
HT1080 cells = assay: Cellular assay, inhibition of 2-HG production (LC-MS) in HT1080 cells; format: cell-based; conditions: Homo sapiens, HT-1080, 48 hours, LC-MS of media
Description: Cells (HT1080 or U87MG) are grown in T125 flasks in DMEM containing 10% FBS, 1× penicillin/streptomycin and 500 ug/mL G418 (present in U87MG cells only). They are harvested by trypsin and seeded into 96 well white bottom plates at a density of 5000 cell/well in 100 μl/well in DMEM with 10% FBS. No cells are placed in columns 1 and 12. Cells are incubated overnight at 37° C. in 5% CO2. The next day test compounds are made up at 2× the final concentration and 100 μl are added to each cell well. The final concentration of DMSO is 0.2% and the DMSO control wells are plated in row G. The plates are then placed in the incubator for 48 hours. At 48 hours, 100 μl of media is removed from each well and analyzed by LC-MS for 2-HG concentrations. The cell plate is placed back in the incubator for another 24 hours. At 72 hours post compound addition, 10 mL/plate of Promega Cell Titer Glo reagent is thawed and mixed. The cell plate is removed from the incubator and allowed to equilibrate to room temperature. Then 100 μl of Promega Cell Titer Glo reagent is added to each well of media. The cell plate is then placed on an orbital shaker for 10 minutes and then allowed to sit at room temperature for 20 minutes. The plate is then read for luminescence with an integration time of 500 ms.
The IC50 for inhibition of 2-HG production (concentration of test compound to reduce 2HG production by 50% compared to control) in these two cell lines for various compounds of formula I is set forth in Table 2 above.

IDH1 R132C = IDH1 R132C (Homo sapiens, UniProt O75874, R132C); assay: In vitro NADPH depletion assay for IDH1m R132C inhibitors; format: biochemical; conditions: enzyme, diaphorase/resazurin readout, read-out: IDH R132C IC50
Description: (§1) A test compound is prepared as 10 mM stock in DMSO and diluted to 50× final concentration in DMSO, for a 50 μl reaction mixture. IDH enzyme activity converting alpha-ketoglutarate to 2-hydroxyglutaric acid is measured using a NADPH depletion assay. In the assay the remaining cofactor is measured at the end of the reaction with the addition of a catalytic excess of diaphorase and resazurin, to generate a fluorescent signal in proportion to the amount of NADPH remaining. IDH1-R132 homodimer enzyme is diluted to […] in 40 μl of Assay Buffer(150 mM NaCl, 20 mM Tris-Cl pH 7.5, 10 mM MgCl2, 0.05% BSA, 2 mM b-mercaptoethanol); 1 μl of test compound dilution in DMSO is added and the mixture is incubated for 60 minutes at room temperature. The reaction is started with the addition of 10 μl of Substrate Mix ([…], 5 mM alpha-ketoglutarate, in Assay Buffer) and the mixture is incubated for 90 minutes at room temperature. The reaction is terminated with the addition of 25 μl of Detection Buffer (36 μg/ml diaphorase, […], in 1× Assay Buffer), and is incubated for 1 minute before reading on a SpectraMax platereader at Ex544/Em590.
Compounds are assayed for their activity against IDH1 R132C following the same assay as above with the following modifications: Assay Buffer is (50 mM potassium phosphate, pH 6.5; 40 mM sodium carbonate, 5 mM MgCl2, 10% glycerol, 2 mM b-mercaptoethanol, and 0.03% BSA). The concentration of NADPH and alpha-ketoglutarate in the Substrate Buffer is 20 μM and 1 mM, respectively.
(§2) Representative compounds of formula I set forth in Table 1 were tested in this assay and the results are set forth below in Table 3.

IDH1 R132H = IDH1 R132H (Homo sapiens, UniProt O75874, R132H); assay: In vitro NADPH depletion assay for IDH1m R132H inhibitors; format: biochemical; conditions: enzyme, diaphorase/resazurin readout, read-out: IDH R132H IC50
Description: as §1, §2

Sequence of IDH1 R132H (O75874 whole entry R132H): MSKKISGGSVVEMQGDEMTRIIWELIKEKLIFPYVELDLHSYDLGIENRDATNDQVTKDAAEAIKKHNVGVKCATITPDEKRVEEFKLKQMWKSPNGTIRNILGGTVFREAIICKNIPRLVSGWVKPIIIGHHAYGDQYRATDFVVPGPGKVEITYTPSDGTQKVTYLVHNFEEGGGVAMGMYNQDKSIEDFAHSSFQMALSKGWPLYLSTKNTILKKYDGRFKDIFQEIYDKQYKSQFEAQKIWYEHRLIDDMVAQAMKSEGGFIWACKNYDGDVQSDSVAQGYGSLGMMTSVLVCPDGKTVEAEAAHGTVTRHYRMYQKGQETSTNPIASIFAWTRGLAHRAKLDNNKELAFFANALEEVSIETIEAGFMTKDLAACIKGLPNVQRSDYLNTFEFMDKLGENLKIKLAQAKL
Sequence of IDH1 R132C (O75874 whole entry R132C): as the sequence (O75874 whole entry R132H) above, with H132C counted along it

Row | SMILES | pIC50 (HT1080 cells) | pIC50 (IDH1 R132C) | pIC50 (IDH1 R132H)
1 | COC(=O)N1[C@@H](C(=O)N(c2cccc(F)c2)[C@H](C(=O)NC2CC(F)(F)C2)c2ccccc2Cl)CCC1(C)C (single isomer, unassigned) [Compound 114] | 6.30 to 7.00 | ≥ 7.00 | 6.30 to 7.00
2 | COC(=O)N1[C@H](C(=O)N(c2cccc(F)c2)[C@H](C(=O)NC2CC(F)(F)C2)c2ccccc2Cl)CCC1(C)C (single isomer, unassigned) [Compound 115] | 6.00 to 6.30 | 6.30 to 7.00 | 6.30 to 7.00
3 | O=C(NC1CC(F)(F)C1)[C@H](c1ccccc1Cl)N(C(=O)[C@@H]1CCN1c1ncccn1)c1cccc(F)c1 (stereo in doubt) [Compound 102] | 6.30 to 7.00 | ≥ 7.00 | 6.30 to 7.00
4 | O=C(NC1CC(F)(F)C1)[C@@H](c1ccccc1Cl)N(C(=O)[C@@H]1CCN1c1ccccn1)c1cccc(F)c1 (stereo in doubt) [Compound 105] | 6.30 to 7.00 | ≥ 7.00 | 6.30 to 7.00
5 | COC(=O)N1CCOC[C@H]1C(=O)N(c1cccc(F)c1)[C@H](C(=O)NC1CCCCC1)c1ccccc1C [Compound 23] | ≥ 7.00 | ≥ 7.00 | –
6 | O=C(NC1CCCCC1)C(c1ccc(F)cc1F)N(C(=O)Cn1cnc(Cl)c1Cl)c1cccc(F)c1 (centres unmarked) [Compound 29] | 6.30 to 7.00 | ≥ 7.00 | ≥ 7.00
7 | O=C(NC1CC(F)(F)C1)C(c1ccccc1Cl)N(C(=O)Cn1cnc(Cl)c1Cl)c1cccc(F)c1 (centres unmarked) [Compound 35] | 6.30 to 7.00 | ≥ 7.00 | ≥ 7.00
8 | O=C(NC1CCC(F)(F)CC1)C(c1ccccc1Cl)N(C(=O)CNc1ncccc1F)c1cccc(F)c1 (centres unmarked) [Compound 48] | 6.30 to 7.00 | ≥ 7.00 | ≥ 7.00
9 | COC(=O)N1CCC[C@H]1C(=O)N(c1cccc(F)c1)[C@H](C(=O)NC1CC(F)(F)C1)c1c(Cl)cccc1Cl [Compound 66] | 6.30 to 7.00 | 6.30 to 7.00 | 6.30 to 7.00
10 | COC(=O)N1CCN(C(C)=O)C[C@H]1C(=O)N(c1cccc(F)c1)[C@H](C(=O)NC1CC(F)(F)C1)c1ccccc1Cl [Compound 68, (S)-Methyl 4-acetyl-2-(((S)-1-(2-chlorophenyl)-2-(3,3-difluorocyclobutylamino)-2-oxoethyl) (3-fluorophenyl)carbamoyl)piperazine-1-carboxylate] | 6.30 to 7.00 | ≥ 7.00 | ≥ 7.00
11 | O=C(NC1CC(F)(F)C1)[C@H](c1ccccc1Cl)N(C(=O)[C@@H]1CCCN1c1ncccn1)c1cccc(F)c1 [Compound 69, (2S)—N—((S)-(3,3-difluorocyclobutylcarbamoyl)(2-chlorophenyl)methyl)-N-(3-fluorophenyl)-1-(pyrimidin-2-yl)pyrrolidine-2-carboxamide] | ≥ 7.00 | ≥ 7.00 | ≥ 7.00
12 | COC(=O)N1C[C@@H](F)C[C@H]1C(=O)N(c1cccc(F)c1)[C@H](C(=O)NC1CC(F)(F)C1)c1ccccc1Cl [Compound 70] | 6.30 to 7.00 | ≥ 7.00 | ≥ 7.00
13 | COC(=O)NCC(=O)N(c1cccc(F)c1)C(C(=O)NC1CC(F)(F)C1)c1ccccc1Cl (centres unmarked) [Compound 73, methyl 2-((1-(2-chlorophenyl)-2-(3,3-difluorocyclobutylamino)-2-oxoethyl)(3-fluorophenyl)amino)-2-oxoethylcarbamate] | 6.00 to 6.30 | 6.30 to 7.00 | 6.30 to 7.00
14 | CC(C)OC(=O)NCC(=O)N(c1cccc(F)c1)C(C(=O)NC1CC(F)(F)C1)c1ccccc1Cl (centres unmarked) [Compound 74] | 5.70 to 6.00 | 6.30 to 7.00 | 6.30 to 7.00
15 | CCOC(=O)NCC(=O)N(c1cccc(F)c1)C(C(=O)NC1CC(F)(F)C1)c1ccccc1Cl (centres unmarked) [Compound 75] | 6.00 to 6.30 | 6.30 to 7.00 | 6.30 to 7.00
16 | COCCO[C@@H]1C[C@@H](C(=O)N(c2cccc(F)c2)[C@H](C(=O)NC2CC(F)(F)C2)c2ccccc2Cl)N(C(=O)OC)C1 [Compound 79, (2S,4R)-methyl 2-(((S)-1-(2-chlorophenyl)-2-((3,3-difluoro-cyclobutyl)amino)-2-oxoethyl)(3-fluorophenyl)carbamoyl)-4-(2-methoxyethoxy)pyrrolidine-1-carboxylate] | ≥ 7.00 | ≥ 7.00 | ≥ 7.00

Row | SMILES | pIC50 (HT1080 cells) | pIC50 (IDH1 R132C) | pIC50 (IDH1 R132H)
17 | COC(=O)NCC(=O)N(c1cccc(F)c1)C(C(=O)NC1CCC(F)CC1)c1ccccc1Cl (centres unmarked) [Compound 81] | 6.30 to 7.00 | 6.30 to 7.00 | 6.30 to 7.00
18 | COC(=O)NCC(=O)N(c1cccc(F)c1)[C@H](C(=O)N[C@H]1CCCCC1(F)F)c1ccccc1Cl [Compound 82] | 6.30 to 7.00 | ≥ 7.00 | ≥ 7.00
19 | COC(=O)NCC(=O)N(c1cccc(F)c1)[C@H](C(=O)N[C@@H]1CCCCC1(F)F)c1ccccc1Cl [Compound 83] | 6.00 to 6.30 | 6.30 to 7.00 | 6.30 to 7.00
20 | COC(=O)N[C@@H](CO)C(=O)N(c1cccc(F)c1)[C@H](C(=O)NC1CCCCC1)c1ccccc1Cl [Compound 84] | 6.30 to 7.00 | ≥ 7.00 | ≥ 7.00
21 | COC(=O)N[C@@H](CO)C(=O)N(c1cccc(F)c1)[C@@H](C(=O)NC1CCCCC1)c1ccccc1Cl [Compound 85] | 6.00 to 6.30 | 6.30 to 7.00 | ≥ 7.00
22 | O=C(NC1CC(F)(F)C1)C(c1ccccc1Cl)N(C(=O)Cc1cccnc1)c1cccc(F)c1 (centres unmarked) [Compound 86] | 6.30 to 7.00 | ≥ 7.00 | ≥ 7.00
23 | Cc1nc(Cl)c(Cl)n1CC(=O)N(c1cccc(F)c1)C(C(=O)NC1CC(F)(F)C1)c1ccccc1Cl (centres unmarked) [Compound 87] | 6.30 to 7.00 | ≥ 7.00 | ≥ 7.00
24 | C=CC(=O)Nc1cccc(N(C(=O)Cc2cccnc2)C(C(=O)NC2CC(F)(F)C2)c2ccccc2Cl)c1 (centres unmarked) [Compound 88, N-(3-(N-(1-(2-chlorophenyl)-2-(3,3-difluorocyclobutylamino)-2-oxoethyl)-2-(pyridin-3-yl)acetamido)phenyl)acrylamide] | 5.70 to 6.00 | 6.30 to 7.00 | 6.00 to 6.30
25 | COC(=O)N1C[C@H](OCCO)C[C@H]1C(=O)N(c1cccc(F)c1)[C@H](C(=O)NC1CC(F)(F)C1)c1ccccc1Cl [Compound 90] | 6.30 to 7.00 | ≥ 7.00 | ≥ 7.00
26 | COC(=O)N1CC[C@H](O)[C@H]1C(=O)N(c1cccc(F)c1)[C@H](C(=O)NC1CC(F)(F)C1)c1ccccc1Cl [Compound 91] | 6.30 to 7.00 | 6.30 to 7.00 | ≥ 7.00
27 | COC(=O)NCC(=O)N(c1cccc(F)c1)C(C(=O)NC1CCC(F)(F)CC1)c1ccccc1Cl (centres unmarked) [Compound 92] | 6.30 to 7.00 | ≥ 7.00 | ≥ 7.00
28 | CC(C)(C)OC(=O)NCC(=O)N(c1cccc(F)c1)C(C(=O)NC1CCC(F)(F)CC1)c1ccccc1Cl (centres unmarked) [Compound 93] | 5.70 to 6.00 | 6.30 to 7.00 | 6.30 to 7.00
29 | COC(=O)N(C)CC(=O)N(c1cccc(F)c1)C(C(=O)NC1CC(F)(F)C1)c1ccccc1Cl (centres unmarked) [Compound 96] | 6.00 to 6.30 | 6.30 to 7.00 | ≥ 7.00
30 | COC(=O)NCC(=O)N(c1cccc(F)c1)[C@H](C(=O)N[C@H]1CCC(F)(F)C1)c1ccccc1Cl [Compound 97] | 6.00 to 6.30 | 6.30 to 7.00 | 6.30 to 7.00
31 | COC(=O)NCC(=O)N(c1cccc(F)c1)[C@H](C(=O)N[C@@H]1CCC(F)(F)C1)c1ccccc1Cl [Compound 98] | 5.70 to 6.00 | 6.30 to 7.00 | 6.30 to 7.00
